Where two headings read alike, the source gives them in different places.
Legend:
Assay type in all cases: in vivo
Phaedon cochleariae = system: Phaedon cochleariae
Text: (§1) If the actual insecticidal or acaricidal kill rate exceeds the calculated value, the kill of the combination is superadditive, i.e. a synergistic effect is present. In this case, the actually observed kill rate must exceed the value calculated using the above formula for the expected kill rate (E).
(§2) • Solvents: 78 parts by weight of acetone 1.5 parts by weight of dimethylformamide • Emulsifier: 0.5 part by weight of alkylaryl polyglycol ether
After the desired period of time, the kill in % is determined 100% means that all beetle larvae have been killed; 0% means that none of the beetle larvae have been killed. The kill rates determined are entered into Colby's formula (see above).

Spodoptera frugiperda = Spodoptera frugiperda test (sprayed cabbage leaves); conditions: single active compound
Text: The expected action for a given combination of two active compounds can be calculated according to S. R. Colby, Weeds 15 (1967), 20-22, as follows:
as §1, §2
To produce a suitable preparation of active compound, 1 part by weight of active compound is mixed with the stated amount of solvent and emulsifier, and the concentrate is diluted with emulsifier-containing water to the desired concentration.
Cabbage leaves (Brassica oleracea) are treated by being sprayed with the preparation of active compound of the desired concentration and are populated with larvae of the armyworm (Spodoptera frugiperda) while the leaves are still moist.
After the desired period of time, the kill in % is determined 100% means that all caterpillars have been killed; 0% means that none of the caterpillars have been killed. The kill rates determined are entered into Colby's formula (see above).

Myzus persicae = conditions: 0.8 g/ha, single active compound
Text: as §1, §2
After the desired period of time, the kill in % is determined 100% means that all of the aphids have been killed; 0% means that none of the aphids have been killed. The kill rates determined are entered into Colby's formula (see above).

[1] = 4 g/ha, after 6 d, single active compound
[2] = 20 g/ha, single active compound
[3] = 100 g/ha, after 6 d, single active compound
[4] = 20 g/ha, after 6 d, single active compound

Compound	Kill In % after 2d (Phaedon cochleariae; [2]) [%]	Kill In % after 6d (Phaedon cochleariae; [3]) [%]	Kill in % after 6 d (Spodoptera frugiperda; 4 g/ha) [%]	Kill In % after 2d (Phaedon cochleariae; 4 g/ha, single active compound) [%]	Kill in % after 6 d (Spodoptera frugiperda; 20 g/ha) [%]	Kill in % after 6 d (Myzus persicae) [%]	Kill In % after 6d (Phaedon cochleariae; [4]) [%]	further results
O=C1C=C(N(Cc2ccc(Cl)nc2)CC(F)F)CO1 [compound (I-5), 4-{[(6-chloropyrid-3-yl)methyl](2,2-difluoroethyl)amino}furan-2(5H)-one]	17	67	0					Kill In % after 6d (Phaedon cochleariae; [1]): 0%
O=C1C=C(N(CCF)Cc2ccc(Cl)nc2)CO1 [compound (I-4), 4-{[(6-chloropyrid-3-yl)methyl](2-fluoroethyl)amino}furan-2(5H)-one]		50		0	0			Kill In % after 6d (Phaedon cochleariae; [1]): 0%; Kill In % after 2d (Phaedon cochleariae; 100 g/ha, single active compound): 50%; Kill in % after 1d (Myzus persicae): 20%
methiocarb				17		0		
COP(N)(=O)SC (stereo not drawn) [methamidophos]					67	0		
COP(=O)(NC(C)=O)SC (stereo not drawn) [acephate]		0				0	0	
CN(Cc1cnc(Cl)c(F)c1)C1=CC(=O)OC1 [compound (I-6), 4-{[(6-chloro-5-fluoropyrid-3-yl)methyl](methyl)amino}furan-2(5H)-one]	0		0		0	80	17	
CCOP(=O)(NC(C)C)Oc1ccc(SC)c(C)c1 (stereo not drawn) [fenamiphos]						0		
CS/C(C)=N/OC(=O)N(C)SN(C)C(=O)O/N=C(\C)SC [thiodicarb]		0	50		83	0	0	Kill in % after 1d (Myzus persicae): 0%
CCCSP(=O)(OCC)SCCC [ethoprofos, ethoprophos]								Kill In % after 6d (Phaedon cochleariae; in vivo): 0%
CCOP(=S)(OCC)Oc1nc(Cl)c(Cl)cc1Cl [chlorpyriphos, chlorpyrifos]	50		67	0				

Source: patent US8846567B2, “Active compound combinations having insecticidal and acaricidal properties” (priority 2009, dated 2014)
